Reference: patent US6355799B1, “Substituted benzene compounds, process for their preparation, and herbicidal and defoliant compositions containing them” (ISK Americas Incorporated, priority 1997, dated 2002)

How the values were obtained:
Assay type in all cases: in vivo
[1] = test system: velvetleaf (Abutilon theophrasti, ABUTH); assay: Pre-emerge test, greenhouse herbicide activity screening; details: pre-emerge, rated 14 days after application, 0 = no damage, 100 = complete death
Outline: (§1)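 Plants grown in 10 cm pots of sandy loam mix received acetone-dissolved compounds through a moving flat-fan nozzle. Doses ranged from 15 to 1000 g ai/ha. Pre-emerge pots were seeded one day earlier, post-emerge pots 8–21 days earlier. Fourteen days on, each pot was graded 0–100 for damage.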

[2] = test system: large crabgrass (Digitaria sanguinalis, DIGSA); assay: as above; details: pre-emerge, rated 14 days after application, 0 = no damage, 100 = complete death
Outline: as §1

[3] = test system: green foxtail (Setaria viridis, SETVI); assay: as above; details: pre-emerge, rated 14 days after application, 0 = no damage, 100 = complete death
Outline: as §1

[4] = test system: barnyardgrass (Echinochloa crus-galli, ECHCG); assay: as above; details: pre-emerge, rated 14 days after application, 0 = no damage, 100 = complete death
Outline: as §1

[5] = test system: johnsongrass (Sorghum halepense, SORHA); assay: as above; details: pre-emerge, rated 14 days after application, 0 = no damage, 100 = complete death
Outline: as §1

[6] = test system: lambsquarters (Chenopodium album, CHEAL); assay: as above; details: pre-emerge, rated 14 days after application, 0 = no damage, 100 = complete death
Outline: as §1

[7] = test system: ivyleaf morningglory (Ipomoea hederacea, IPOHE); assay: as above; details: pre-emerge, rated 14 days after application, 0 = no damage, 100 = complete death
Outline: as §1

[8] = test system: sicklepod (Cassia obtusifolia, CASOB); assay: as above; details: pre-emerge, rated 14 days after application, 0 = no damage, 100 = complete death
Outline: as §1

[9] = test system: common ragweed (Ambrosia artemisizfolia L., AMBEL); assay: as above; details: pre-emerge, rated 14 days after application, 0 = no damage, 100 = complete death
Outline: as §1

[10] = test system: velvetleaf (Abutilon theophrasti, ABUTH); assay: Post-emerge test, greenhouse herbicide activity screening; details: phytotoxicity rating 0-100 (0 no damage, 100 complete death), 14 days after application
Outline: (§2)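 Fourteen days after spraying, crop and weed injury was graded visually from 0, no effect, to 100, every plant dead. Test substances were dissolved in acetone and applied at 15–1000 g ai/ha with a flat-fan nozzle. Application was either pre-emergence, one day after sowing, or post-emergence at the 2–3 leaf stage.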

[11] = test system: redroot pigweed (Amaranthus retroflexus, AMARE); assay: as above; details: phytotoxicity rating 0-100 (0 no damage, 100 complete death), 14 days after application
Outline: as §2

[12] = test system: large crabgrass (Digitaria sanguinalis, DIGSA); assay: as above; details: phytotoxicity rating 0-100 (0 no damage, 100 complete death), 14 days after application
Outline: as §2

[13] = test system: green foxtail (Setaria viridis, SETVI); assay: as above; details: phytotoxicity rating 0-100 (0 no damage, 100 complete death), 14 days after application
Outline: as §2

[14] = test system: barnyardgrass (Echinochloa crus-galli, ECHCG); assay: as above; details: phytotoxicity rating 0-100 (0 no damage, 100 complete death), 14 days after application
Outline: as §2

[15] = test system: johnsongrass (Sorghum halepense, SORHA); assay: as above; details: phytotoxicity rating 0-100 (0 no damage, 100 complete death), 14 days after application
Outline: as §2

[16] = test system: lambsquarters (Chenopodium album, CHEAL); assay: as above; details: phytotoxicity rating 0-100 (0 no damage, 100 complete death), 14 days after application
Outline: as §2

[17] = test system: ivyleaf morningglory (Ipomoea hederacea, IPOHE); assay: as above; details: phytotoxicity rating 0-100 (0 no damage, 100 complete death), 14 days after application
Outline: as §2

[18] = test system: sicklepod (Cassia obtusifolia, CASOB); assay: as above; details: phytotoxicity rating 0-100 (0 no damage, 100 complete death), 14 days after application
Outline: as §2

[19] = test system: common ragweed (Ambrosia artemisizfolia L., AMBEL); assay: as above; details: phytotoxicity rating 0-100 (0 no damage, 100 complete death), 14 days after application
Outline: as §2

[20] = test system: field corn (Zea mays L., var. Dekalb 535, CORN); assay: Pre-emerge test, crop safety; details: pre-emerge, rated 14 days after application, 0 = no damage, 100 = complete death
Outline: (§3)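 Sandy loam pots; pre-emerge: sown 1 d pre-spray, surface-watered after, then bottom-watered. Post-emerge: sown 8–21 d before, 2–3 leaf stage, + 0.25% v/v NIS, bottom-watered. Acetone, 187 l/ha track spray, 15–1000 g ai/ha. 0–100 injury score, day 14.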

[21] = test system: upland rice (Oryza sp., var. Tebonnet, RICE); assay: Pre-emerge test, crop safety; details: pre-emerge, rated 14 days after application, 0 = no damage, 100 = complete death
Outline: as §3

[22] = test system: field corn (Zea mays L., var. Dekalb 535, CORN); assay: Post-emerge test, crop safety; details: phytotoxicity rating 0-100 (0 no damage, 100 complete death), 14 days after application
Outline: (§4)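 Each test used a mechanized track sprayer delivering 187 l/ha of acetone solution at 15–1000 g ai/ha. Post-emerge foliage at 2–3 leaves was treated with added 0.25% v/v non-ionic surfactant and bottom-watered only. Injury was assessed on day 14, where 100 means total kill.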

[23] = test system: upland rice (Oryza sp., var. Tebonnet, RICE); assay: Post-emerge test, crop safety; details: phytotoxicity rating 0-100 (0 no damage, 100 complete death), 14 days after application
Outline: as §4

[24] = test system: redroot pigweed (Amaranthus retroflexus, AMARE); assay: Pre-emerge test, greenhouse herbicide activity screening; details: pre-emerge, rated 14 days after application, 0 = no damage, 100 = complete death
Outline: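 Compounds in acetone were track-sprayed at 187 l/ha, 15–1000 g ai/ha, onto sandy loam pots. Pre-emerge seeds were sown one day before spraying, with surface watering afterwards. Post-emerge plants were at the 2–3 leaf stage and sprayed with 0.25% v/v non-ionic surfactant. Injury was rated 0–100 at 14 days.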

## Cn1c(C(F)(F)F)cc(=O)n(-c2c(F)cc(Cl)c(OC3CCCC3)c2N)c1=O [Compound 1-21]
[1]; 63 g ai/ha
  Pre-emerge Herbicidal Activity ABUTH (phytotoxicity rating, scale 0-100): 70
[1]; 250 g ai/ha
  Pre-emerge Herbicidal Activity ABUTH (phytotoxicity rating, scale 0-100): 100
[2]; 63 g ai/ha
  Pre-emerge Herbicidal Activity DIGSA (phytotoxicity rating, scale 0-100): 70
[2]; 250 g ai/ha
  Pre-emerge Herbicidal Activity DIGSA (phytotoxicity rating, scale 0-100): 100
[3]; 63 g ai/ha
  Pre-emerge Herbicidal Activity SETVI (phytotoxicity rating, scale 0-100): 95
[3]; 250 g ai/ha
  Pre-emerge Herbicidal Activity SETVI (phytotoxicity rating, scale 0-100): 100
[4]; 63 g ai/ha
  Pre-emerge Herbicidal Activity ECHCG (phytotoxicity rating, scale 0-100): 0
[4]; 250 g ai/ha
  Pre-emerge Herbicidal Activity ECHCG (phytotoxicity rating, scale 0-100): 95
[5]; 63 g ai/ha
  Pre-emerge Herbicidal Activity SORHA (phytotoxicity rating, scale 0-100): 0
[5]; 250 g ai/ha
  Pre-emerge Herbicidal Activity SORHA (phytotoxicity rating, scale 0-100): 90
[6]; 63 g ai/ha
  Pre-emerge Herbicidal Activity CHEAL (phytotoxicity rating, scale 0-100): 100
[6]; 250 g ai/ha
  Pre-emerge Herbicidal Activity CHEAL (phytotoxicity rating, scale 0-100): 100
[7]; 63 g ai/ha
  Pre-emerge Herbicidal Activity IPOHE (phytotoxicity rating, scale 0-100): 0
[7]; 250 g ai/ha
  Pre-emerge Herbicidal Activity IPOHE (phytotoxicity rating, scale 0-100): 40
[8]; 63 g ai/ha
  Pre-emerge Herbicidal Activity CASOB (phytotoxicity rating, scale 0-100): 0
[8]; 250 g ai/ha
  Pre-emerge Herbicidal Activity CASOB (phytotoxicity rating, scale 0-100): 0
[9]; 63 g ai/ha
  Pre-emerge Herbicidal Activity AMBEL (phytotoxicity rating, scale 0-100): 0
[9]; 250 g ai/ha
  Pre-emerge Herbicidal Activity AMBEL (phytotoxicity rating, scale 0-100): 100
[10]; 63 g ai/ha
  Post-emerge Herbicidal Activity ABUTH: 85
[10]; 250 g ai/ha
  Post-emerge Herbicidal Activity ABUTH: 100
[11]; 63 g ai/ha
  Post-emerge Herbicidal Activity AMARE: 95
[11]; 250 g ai/ha
  Post-emerge Herbicidal Activity AMARE: 100
[12]; 63 g ai/ha
  Post-emerge Herbicidal Activity DIGSA: 0
[12]; 250 g ai/ha
  Post-emerge Herbicidal Activity DIGSA: 0
[13]; 63 g ai/ha
  Post-emerge Herbicidal Activity SETVI: 10
[13]; 250 g ai/ha
  Post-emerge Herbicidal Activity SETVI: 30
[14]; 63 g ai/ha
  Post-emerge Herbicidal Activity ECHCG: 0
[14]; 250 g ai/ha
  Post-emerge Herbicidal Activity ECHCG: 0
[15]; 63 g ai/ha
  Post-emerge Herbicidal Activity SORHA: 0
[15]; 250 g ai/ha
  Post-emerge Herbicidal Activity SORHA: 0
[16]; 63 g ai/ha
  Post-emerge Herbicidal Activity CHEAL: 75
[16]; 250 g ai/ha
  Post-emerge Herbicidal Activity CHEAL: 95
[17]; 63 g ai/ha
  Post-emerge Herbicidal Activity IPOHE: 70
[17]; 250 g ai/ha
  Post-emerge Herbicidal Activity IPOHE: 90
[18]; 63 g ai/ha
  Post-emerge Herbicidal Activity CASOB: 10
[18]; 250 g ai/ha
  Post-emerge Herbicidal Activity CASOB: 30
[19]; 63 g ai/ha
  Post-emerge Herbicidal Activity AMBEL: 10
[19]; 250 g ai/ha
  Post-emerge Herbicidal Activity AMBEL: 30
[20]; 63 g ai/ha
  Pre-emerge crop damage CORN (phytotoxicity rating, scale 0-100): 0
[20]; 250 g ai/ha
  Pre-emerge crop damage CORN (phytotoxicity rating, scale 0-100): 0
[21]; 63 g ai/ha
  Pre-emerge crop damage RICE (phytotoxicity rating, scale 0-100): 0
[21]; 250 g ai/ha
  Pre-emerge crop damage RICE (phytotoxicity rating, scale 0-100): 10
[22]; 63 g ai/ha
  Post-emerge Herbicidal Activity CORN (crop damage): 5
[22]; 250 g ai/ha
  Post-emerge Herbicidal Activity CORN (crop damage): 5
[23]; 63 g ai/ha
  Post-emerge Herbicidal Activity RICE (crop damage): 10
[23]; 250 g ai/ha
  Post-emerge Herbicidal Activity RICE (crop damage): 10
[24]; 63 g ai/ha
  Pre-emerge Herbicidal Activity AMARE (phytotoxicity rating, scale 0-100): 98
[24]; 250 g ai/ha
  Pre-emerge Herbicidal Activity AMARE (phytotoxicity rating, scale 0-100): 100
